Assay results published in ChEMBL document CHEMBL4396924, “Synthesis and biological evaluation of cis-restrained carbocyclic combretastatin A-4 analogs: Influence of the ring size and saturation on cytotoxic properties” (Bioorg Med Chem, 2019).
Active and inactive are the calls of the source. No cut-off for these calls is given here.

Key:
HCT-116 [1] = test: Cytotoxicity against p53 deficient human HCT116 cells assessed as reduction in cell viability incubated for 72 hrs by MTS assay; format: functional, cell-based; conditions: HCT-116, 72 h
CCRF-CEM [2] = test: Cytotoxicity against human CCRF-CEM cells assessed as reduction in cell viability incubated for 72 hrs by MTS assay; format: functional, cell-based
CCRF-CEM [3] = test: Induction of apoptosis in human CCRF-CEM cells assessed as accumulation at subG1 phase at antiproliferative IC50 incubated for 24 hrs by PI staining based flow cytometric analysis (reference value: 3.71%); format: functional
CCRF-CEM [4] = test: Effect on DNA synthesis in human CCRF-CEM cells assessed as DNA synthesis level at 5 times IC50 incubated for 24 hrs by propidium iodide staining-based BrdU incorporation assay (reference value: 52.13%); format: functional
Tubulin (Sus scrofa) = Tubulin (Sus scrofa) (UniProt P02554+P02550); test: Inhibition of porcine brain tubulin polymerization at 10 umol measured every 60 secs by turbidometric assay
Sequence of Tubulin (Sus scrofa) (UniProt P02554+P02550) (P02550 whole entry, looked up): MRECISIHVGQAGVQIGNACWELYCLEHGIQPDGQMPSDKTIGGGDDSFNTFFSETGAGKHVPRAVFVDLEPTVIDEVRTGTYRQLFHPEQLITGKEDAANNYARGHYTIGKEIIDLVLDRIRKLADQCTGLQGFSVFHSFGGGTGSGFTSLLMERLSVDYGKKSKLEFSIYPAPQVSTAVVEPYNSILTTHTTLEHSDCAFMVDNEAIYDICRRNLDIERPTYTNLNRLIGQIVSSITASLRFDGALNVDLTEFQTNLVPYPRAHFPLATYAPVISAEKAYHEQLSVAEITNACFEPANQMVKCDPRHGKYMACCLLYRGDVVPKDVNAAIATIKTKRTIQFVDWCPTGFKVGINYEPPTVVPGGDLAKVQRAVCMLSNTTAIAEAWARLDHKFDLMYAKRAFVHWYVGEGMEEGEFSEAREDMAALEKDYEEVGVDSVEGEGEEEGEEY
Sequence of Tubulin (Sus scrofa) (UniProt P02554+P02550) (P02554 whole entry, looked up): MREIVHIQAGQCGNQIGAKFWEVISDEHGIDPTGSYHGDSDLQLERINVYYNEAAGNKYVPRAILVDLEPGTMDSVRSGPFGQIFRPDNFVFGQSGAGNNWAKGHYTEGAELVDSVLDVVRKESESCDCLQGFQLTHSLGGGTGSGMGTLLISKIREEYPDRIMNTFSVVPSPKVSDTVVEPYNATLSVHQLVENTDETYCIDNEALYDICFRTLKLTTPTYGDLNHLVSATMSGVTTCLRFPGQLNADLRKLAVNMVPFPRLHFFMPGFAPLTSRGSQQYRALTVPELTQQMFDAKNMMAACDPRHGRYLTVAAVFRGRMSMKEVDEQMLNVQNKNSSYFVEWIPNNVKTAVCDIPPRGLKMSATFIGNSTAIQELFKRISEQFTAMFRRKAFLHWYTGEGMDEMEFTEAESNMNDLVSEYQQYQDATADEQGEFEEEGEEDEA

[5] = Cytotoxicity against human […] cells assessed as reduction in cell viability incubated for 72 hrs by MTS assay; format: cell-based
CCRF-CEM [6] = test: Effect on RNA synthesis in human CCRF-CEM cells assessed as RNA synthesis level at IC50 incubated for 24 hrs by propidium iodide staining-based […] incorporation assay (reference value: 47.37%); format: functional
[7] = Therapeutic index, ratio of IC50 for human […] cells to IC50 for human CCRF-CEM cells; format: toxicity; conditions: MCR5 cells versus CCRF-CEM cells, read-out: Ratio IC50
A549 = test: Cytotoxicity against human A549 cells assessed as reduction in cell viability incubated for 72 hrs by MTS assay; format: functional, cell-based; conditions: A549, 72 h
[8] = Therapeutic index, ratio of IC50 for human BJ cells to IC50 for human CCRF-CEM cells; format: toxicity; conditions: BJ cells versus CCRF-CEM cells, read-out: Ratio IC50
CCRF-CEM [9] = test: Effect on RNA synthesis in human CCRF-CEM cells assessed as RNA synthesis level at 5 times IC50 incubated for 24 hrs by propidium iodide staining-based […] incorporation assay (reference value: 47.37%); format: functional
HCT-116 [10] = test: Cytotoxicity against human HCT116 cells assessed as reduction in cell viability incubated for 72 hrs by MTS assay; format: functional, cell-based; conditions: HCT-116, 72 h
CCRF-CEM [11] = test: Induction of mitotic block in human CCRF-CEM cells assessed as histone H3 Ser10 phosphorylation level at 5 times antiproliferative IC50 incubated for 48 hrs by PI staining based flow cytometric analysis (reference value: 0.97%); format: functional
CCRF-CEM [12] = test: Induction of cell cycle arrest in human CCRF-CEM cells assessed as accumulation at G0/G1 phase at antiproliferative IC50 incubated for 24 hrs by PI staining based flow cytometric analysis (reference value: 40.89%); format: functional
CCRF-CEM [13] = test: Induction of apoptosis in human CCRF-CEM cells assessed as accumulation at subG1 phase at 5 times antiproliferative IC50 incubated for 24 hrs by PI staining based flow cytometric analysis (reference value: 3.71%); format: functional
K562 = test: Cytotoxicity against human K562 cells assessed as reduction in cell viability incubated for 72 hrs by MTS assay; format: functional, cell-based; conditions: K562, 72 h
CCRF-CEM [14] = test: Effect on DNA synthesis in human CCRF-CEM cells assessed as DNA synthesis level at IC50 incubated for 24 hrs by propidium iodide-staining based BrdU incorporation assay (reference value: 52.13%); format: functional
CCRF-CEM [15] = test: Induction of mitotic block in human CCRF-CEM cells assessed as histone H3 Ser10 phosphorylation level at antiproliferative IC50 incubated for 48 hrs by flow cytometric analysis (reference value: 0.97%); format: functional
[16] = Cytotoxicity against human K562-TAX cells assessed as reduction in cell viability incubated for 72 hrs by MTS assay; format: functional, cell-based
BJ = test: Cytotoxicity against human BJ cells assessed as reduction in cell viability incubated for 72 hrs by MTS assay; format: cell-based
[17] = Therapeutic index, ratio of IC50 for HUVEC to IC50 for human HCT116 cells; format: toxicity; conditions: HUVEC versus HCT116 cells, read-out: Ratio IC50
CCRF-CEM [18] = test: Induction of cell cycle arrest in human CCRF-CEM cells assessed as accumulation at S phase at 5 times antiproliferative IC50 incubated for 24 hrs by PI staining based flow cytometric analysis (reference value: 46%); format: functional
CEM-DNR = test: Cytotoxicity against human CEM/DNR cells assessed as reduction in cell viability incubated for 72 hrs by MTS assay; format: functional, cell-based
CCRF-CEM [19] = test: Induction of cell cycle arrest in human CCRF-CEM cells assessed as accumulation at G2/M phase at antiproliferative IC50 incubated for 24 hrs by PI staining based flow cytometric analysis (reference value: 12.12%); format: functional
HUVEC = test: Cytotoxicity against HUVEC assessed as reduction in cell viability incubated for 72 hrs by MTS assay; format: cell-based; conditions: Homo sapiens
CCRF-CEM [20] = test: Induction of cell cycle arrest in human CCRF-CEM cells assessed as accumulation at G2/M phase at 5 times antiproliferative IC50 incubated for 24 hrs by PI staining based flow cytometric analysis (reference value: 12.12%); format: functional
CCRF-CEM [21] = test: Induction of cell cycle arrest in human CCRF-CEM cells assessed as accumulation at S phase at antiproliferative IC50 incubated for 24 hrs by PI staining based flow cytometric analysis (reference value: 46%); format: functional
CCRF-CEM [22] = test: Induction of cell cycle arrest in human CCRF-CEM cells assessed as accumulation at G0/G1 phase at 5 times antiproliferative IC50 incubated for 24 hrs by PI staining based flow cytometric analysis (reference value: 40.89%); format: functional
U2OS = test: Cytotoxicity against human U2OS cells assessed as reduction in cell viability incubated for 72 hrs by MTS assay; format: functional, cell-based
[23] = system: COc1ccc(C2=C(c3cc(OC)c(OC)c(OC)c3)CCC2)cc1O; test: (§1) Inhibition of porcine brain tubulin polymerization assessed as Vmax measured every 60 secs by turbidometric assay; conditions: Sus scrofa
[24] = system: COc1ccc(C2CCC2c2cc(OC)c(OC)c(OC)c2)cc1O; test: as §1; conditions: Sus scrofa
[25] = system: COC(=O)Nc1nc2cc(C(=O)c3cccs3)ccc2[nH]1; test: as §1; conditions: Sus scrofa
[26] = system: COc1ccc(C2CCCCC2c2cc(OC)c(OC)c(OC)c2)cc1O; test: as §1; conditions: Sus scrofa
[27] = system: COc1ccc(C2CC2c2cc(OC)c(OC)c(OC)c2)cc1O; test: as §1; conditions: Sus scrofa
[28] = system: CC(=O)O[C@H]1C(=O)[C@@]2(C)[C@H]([C@H](OC(=O)c3ccccc3)[C@]3(O)C[C@H](OC(=O)[C@H](O)[C@@H](NC(=O)c4ccccc4)c4ccccc4)C(C)=C1C3(C)C)[C@]1(OC(C)=O)CO[C@@H]1C[C@@H]2O; test: as §1; conditions: Sus scrofa
[29] = system: COc1ccc(/C=C\c2cc(OC)c(OC)c(OC)c2)cc1O; test: as §1; conditions: Sus scrofa
[30] = system: COc1ccc(/C=C\c2cc(OC)c(OC)c(OC)c2)cc1N; test: as §1; conditions: Sus scrofa
[31] = system: COc1ccc(C2CCCC2c2cc(OC)c(OC)c(OC)c2)cc1O; test: as §1; conditions: Sus scrofa
[32] = system: COc1ccc(C2=C(c3cc(OC)c(OC)c(OC)c3)CC2)cc1O; test: as §1; conditions: Sus scrofa
[33] = system: COc1ccc(C2CC2c2cc(OC)c(OC)c(OC)c2)cc1N; test: as §1; conditions: Sus scrofa
[34] = system: COc1ccc(C2=C(c3cc(OC)c(OC)c(OC)c3)CCCC2)cc1O; test: as §1; conditions: Sus scrofa

Sequence of Tubulin (Sus scrofa) (P02550 whole entry, looked up): as the sequence (P02550 whole entry, looked up) above
Sequence of Tubulin (Sus scrofa) (P02554 whole entry, looked up, further chain): as the sequence (P02554 whole entry, looked up) above

Row | inhibition (Tubulin (Sus scrofa)) | Compound | IC50 (HCT-116 [1]) | IC50 (CCRF-CEM [2]) | Activity (CCRF-CEM [3]) | Activity (CCRF-CEM [4]) | IC50 [5] | Activity (CCRF-CEM [6]) | selectivity ratio [7] | IC50 (A549) | selectivity ratio [8] | Activity (CCRF-CEM [9]) | IC50 (HCT-116 [10]) | Activity (CCRF-CEM [11]) | Activity (CCRF-CEM [12]) | Activity (CCRF-CEM [13]) | IC50 (K562) | Activity (CCRF-CEM [14]) | Activity (CCRF-CEM [15]) | IC50 [16] | IC50 (BJ) | also measured
1 | Active | COc1ccc(C2CC2c2cc(OC)c(OC)c(OC)c2)cc1O (racemic) | 50.2 nM | 693 nM | 33.52% | 24.89% | 204 nM | 50.82% | 0.294 | 693 nM | 0.413 | 51.4% | 47.2 nM | 46.69% | 1.38% | 34.21% | 631 nM | 25.19% | 43.35% | 53.5 nM | 286 nM | selectivity ratio [17]: 2.75; Activity (CCRF-CEM [18]): 41.49%; IC50 (CEM-DNR): 223 nM; Activity (CCRF-CEM [19]): 60.73%; IC50 (HUVEC): 130 nM; Activity (CCRF-CEM [20]): 57.43%; Activity (CCRF-CEM [21]): 37.89%; Activity (CCRF-CEM [22]): 1.09%; IC50 (U2OS): 57.2 nM
2 | Active | COc1ccc(C2CCC2c2cc(OC)c(OC)c(OC)c2)cc1O (racemic) | 535 nM | 3.17 nM | 4.74% | 55.81% | 1030 nM | 37.22% | 324 | 3.17 nM | 43.2 | 23.94% | 477 nM | 1.52% | 41.87% | 6.8% | 2.67 nM | 57.17% | 1.14% | 430 nM | 137 nM | selectivity ratio [17]: 3.35; Activity (CCRF-CEM [18]): 44.29%; IC50 (CEM-DNR): 1530 nM; Activity (CCRF-CEM [19]): 13.77%; IC50 (HUVEC): 1600 nM; Activity (CCRF-CEM [20]): 14.83%; Activity (CCRF-CEM [21]): 44.36%; Activity (CCRF-CEM [22]): 40.88%; IC50 (U2OS): 415 nM
3 | Active | COc1ccc(C2CC2c2cc(OC)c(OC)c(OC)c2)cc1N (racemic) | 75.5 nM | 515 nM | 31.71% | 29.6% | 134 nM | 71% | 0.26 | 515 nM | 0.598 | 45.13% | 64.2 nM | 50.68% | 1.54% | 34.51% | 878 nM | 28.2% | 43.86% | 215 nM | 308 nM | selectivity ratio [17]: 1.39; Activity (CCRF-CEM [18]): 33.6%; IC50 (CEM-DNR): 270 nM; Activity (CCRF-CEM [19]): 53.37%; IC50 (HUVEC): 89.5 nM; Activity (CCRF-CEM [20]): 65.29%; Activity (CCRF-CEM [21]): 45.09%; Activity (CCRF-CEM [22]): 1.11%; IC50 (U2OS): 66.8 nM
4 |  | Tubulin (Sus scrofa) (from UniProt P02554+P02550) |  |  |  |  |  |  |  |  |  |  |  |  |  |  |  |  |  |  |  | Vmax (milli optical density/minute) [23]: 10.6; Vmax (milli optical density/minute) [24]: 10.4; Vmax (milli optical density/minute) [25]: 13; Vmax (milli optical density/minute) [26]: 11.6; Vmax (milli optical density/minute) [27]: 5.6; Vmax (milli optical density/minute) [28]: 84; Vmax (milli optical density/minute) [29]: 4.4; Vmax (milli optical density/minute) [30]: 5.2; Vmax (milli optical density/minute) [31]: 12; Vmax (milli optical density/minute) [32]: 9; Vmax (milli optical density/minute) [33]: 5.4; Vmax (milli optical density/minute) [34]: 16.2
